From ChEMBL document CHEMBL3885861, “Open TG-GATES”

Organism: Rattus norvegicus
Assay: Open TG-GATES - Regimen: Single
Assay type: toxicity, organism-based, Sprague-Dawley
Design: regimen Single, gender Male, age 6 weeks
Conditions: in vivo, po, 100 mg/kg, route gavage, dose level Low; for APTT / Bas / Eos / Fbg / Hb / Ht / Lym / MCH / MCHC / MCV / Mono / Neu / PT / Plat / RBC / Ret / WBC: tissue Blood; for KIDNEY_L / KIDNEY_R / KIDNEY_TOTAL: tissue Kidney; for LIVER: tissue Liver; for A/G / ALP / ALT / AST / BUN / CRE / Ca / Cl / DBIL / GLC / IP / K / LDH / Na / PL / RALB / TBIL / TC / TG / TP / gamma-GTP: tissue Plasma

CCCCNC(=O)NS(=O)(=O)c1ccc(C)cc1 [TOLBUTAMIDE]
TERMINAL_BW (3 h): 205.3 g
APTT (3 h): 21 s
Bas (3 h): 0%
Eos (3 h): 1%
Fbg (3 h): 274.2 mg/dL
Hb (3 h): 13.4 g/dL
Ht (3 h): 41.4%
Lym (3 h): 73%
MCH (3 h): 20.9 pg
MCHC (3 h): 32.3%
MCV (3 h): 64.7 fL
Mono (3 h): 3.4%
Neu (3 h): 21.8%
PT (3 h): 13.2 s
Plat (3 h): 122.1 x10_4/uL
RBC (3 h): 641 x10_4/ul
Ret (3 h): 8.8%
WBC (3 h): 90.7 x10_2/uL
KIDNEY_L (3 h): 1 g
KIDNEY_R (3 h): 1 g
KIDNEY_TOTAL (3 h): 2 g
LIVER (3 h): 9.2 g
A/G (3 h): 0.9
ALP (3 h): 1360.8 IU/L
ALT (3 h): 49 IU/L
AST (3 h): 92 IU/L
BUN (3 h): 10.8 mg/dL
CRE (3 h): 0.2 mg/dL
Ca (3 h): 10.8 mg/dL
Cl (3 h): 106.2 meq/L
DBIL (3 h): 0.004 mg/dL
GLC (3 h): 156.2 mg/dL
IP (3 h): 8.5 mg/dL
K (3 h): 4 meq/L
LDH (3 h): 63.6 IU/L
Na (3 h): 141.4 meq/L
PL (3 h): 129 mg/dL
RALB (3 h): 2.5 g/dL
TBIL (3 h): 0.058 mg/dL
TC (3 h): 73.4 mg/dL
TG (3 h): 48 mg/dL
TP (3 h): 5.3 g/dL
gamma-GTP (3 h): 1.2 IU/L
TERMINAL_BW (6 h): 204.4 g
APTT (6 h): 16.5 s
Bas (6 h): 0%
Eos (6 h): 1%
Fbg (6 h): 278.2 mg/dL
Hb (6 h): 13.5 g/dL
Ht (6 h): 41.6%
Lym (6 h): 75%
MCH (6 h): 20.9 pg
MCHC (6 h): 32.3%
MCV (6 h): 64.8 fL
Mono (6 h): 2.2%
Neu (6 h): 20.4%
PT (6 h): 13.2 s
Plat (6 h): 124.3 x10_4/uL
RBC (6 h): 642.6 x10_4/ul
Ret (6 h): 9.1%
WBC (6 h): 98.3 x10_2/uL
KIDNEY_L (6 h): 0.9 g
KIDNEY_R (6 h): 0.9 g
KIDNEY_TOTAL (6 h): 1.8 g
LIVER (6 h): 8.8 g
A/G (6 h): 0.9
ALP (6 h): 1403.8 IU/L
ALT (6 h): 40.4 IU/L
AST (6 h): 71.8 IU/L
BUN (6 h): 10.4 mg/dL
CRE (6 h): 0.2 mg/dL
Ca (6 h): 10.9 mg/dL
Cl (6 h): 106.8 meq/L
DBIL (6 h): 0.006 mg/dL
GLC (6 h): 137.4 mg/dL
IP (6 h): 9.8 mg/dL
K (6 h): 3.9 meq/L
LDH (6 h): 50.2 IU/L
Na (6 h): 141.8 meq/L
PL (6 h): 134 mg/dL
RALB (6 h): 2.5 g/dL
TBIL (6 h): 0.06 mg/dL
TC (6 h): 72.4 mg/dL
TG (6 h): 64.2 mg/dL
TP (6 h): 5.2 g/dL
gamma-GTP (6 h): 1.2 IU/L
TERMINAL_BW (9 h): 201.2 g
APTT (9 h): 16.5 s
Bas (9 h): 0%
Eos (9 h): 1.2%
Fbg (9 h): 288.4 mg/dL
Hb (9 h): 13.6 g/dL
Ht (9 h): 41.6%
Lym (9 h): 72.6%
MCH (9 h): 20.9 pg
MCHC (9 h): 32.7%
MCV (9 h): 63.9 fL
Mono (9 h): 1.6%
Neu (9 h): 24%
PT (9 h): 13.5 s
Plat (9 h): 122.2 x10_4/uL
RBC (9 h): 650.4 x10_4/ul
Ret (9 h): 8.3%
WBC (9 h): 89.4 x10_2/uL
KIDNEY_L (9 h): 0.9 g
KIDNEY_R (9 h): 0.9 g
KIDNEY_TOTAL (9 h): 1.8 g
LIVER (9 h): 7.9 g
A/G (9 h): 0.9
ALP (9 h): 1515.4 IU/L
ALT (9 h): 39.2 IU/L
AST (9 h): 80.4 IU/L
BUN (9 h): 10 mg/dL
CRE (9 h): 0.2 mg/dL
Ca (9 h): 10.7 mg/dL
Cl (9 h): 107.4 meq/L
DBIL (9 h): 0.002 mg/dL
GLC (9 h): 158.2 mg/dL
IP (9 h): 9.7 mg/dL
K (9 h): 4.1 meq/L
LDH (9 h): 66.6 IU/L
Na (9 h): 142.4 meq/L
PL (9 h): 122.8 mg/dL
RALB (9 h): 2.5 g/dL
TBIL (9 h): 0.064 mg/dL
TC (9 h): 69.4 mg/dL
TG (9 h): 34.6 mg/dL
TP (9 h): 5.2 g/dL
gamma-GTP (9 h): 1 IU/L
TERMINAL_BW (24 h): 220.2 g
APTT (24 h): 17.7 s
Bas (24 h): 0.2%
Eos (24 h): 1%
Fbg (24 h): 273.6 mg/dL
Hb (24 h): 13.3 g/dL
Ht (24 h): 41%
Lym (24 h): 80.4%
MCH (24 h): 20.8 pg
MCHC (24 h): 32.5%
MCV (24 h): 64.1 fL
Mono (24 h): 2.4%
Neu (24 h): 15.4%
PT (24 h): 12.9 s
Plat (24 h): 129 x10_4/uL
RBC (24 h): 640.4 x10_4/ul
Ret (24 h): 7.7%
WBC (24 h): 82.4 x10_2/uL
KIDNEY_L (24 h): 1 g
KIDNEY_R (24 h): 1 g
KIDNEY_TOTAL (24 h): 2 g
LIVER (24 h): 10.2 g
A/G (24 h): 0.9
ALP (24 h): 1457.6 IU/L
ALT (24 h): 46.4 IU/L
AST (24 h): 73 IU/L
BUN (24 h): 14.6 mg/dL
CRE (24 h): 0.2 mg/dL
Ca (24 h): 11.2 mg/dL
Cl (24 h): 104.4 meq/L
DBIL (24 h): 0.008 mg/dL
GLC (24 h): 174.6 mg/dL
IP (24 h): 8.7 mg/dL
K (24 h): 4.2 meq/L
LDH (24 h): 69 IU/L
Na (24 h): 142 meq/L
PL (24 h): 148.2 mg/dL
RALB (24 h): 2.5 g/dL
TBIL (24 h): 0.066 mg/dL
TC (24 h): 80.6 mg/dL
TG (24 h): 70.8 mg/dL
TP (24 h): 5.3 g/dL
gamma-GTP (24 h): 1.2 IU/L
